In US20240092784A1, “CONDENSED HETEROCYCLIC COMPOUND” (NISSAN CHEMICAL CORPORATION, priority 2020, published 2024):
Structures can show the parent of a compound that is named as a salt. Where two headings read alike, the source gives them in different places.

Target: human SPR (Homo sapiens (Human), UniProt P35270)
Assay: Evaluation Example 2: Measurement of human SPR inhibitory activity (seven concentrations, sepiapterin absorbance at 420 nm)
Assay type: biochemical
Settings: Evaluation Example 2, seven concentrations 0.14 nM to 100 nM, 240 minutes at room temperature, read-out: IC50
Experimental: Human SPR was prepared as described below. The full-length human SPR (1-261) cDNA was purchased from Eurofins Genomics as an artificially synthesized plasmid containing a DNA sequence optimized for the E. coli expression system so that the sequence of the expressed protein after transcription and translation matches the sequence described in UniprotKB (P35270).
Linearized insert and vector were prepared by PCR using primers designed for amplification of human SPR cDNA and primers designed to contain the thrombin recognition sequence of pET28a (Novagen) and a polyhistidine tag. Cloning was performed using In-Fusion (registered trademark) HD Cloning Kit (TaKaRa) to thereby construct a human SPR expression plasmid. The resultant human SPR expression plasmid was transformed into BL21 (DE3) competent cells (INVITROGEN).
The cells were inoculated into LB medium (1% triptone, 0.5% yeast extract, 1% sodium chloride) containing […] of kanamycin, and then precultured at 37° C. overnight. The precultured cells were inoculated into TB medium (1.2% triptone, 2.4% yeast extract, 9.4% dipotassium hydrogen phosphate, 2.2% potassium dihydrogen phosphate, 0.8% glycerin) containing […] of kanamycin, and the cultured at 37° C., to thereby induce SPR expression with 0.5 mM IPTG for four hours. After the induction, the cells were collected by centrifugation at 6,000 G for 30 minutes and washed with PBS, and the washing was discarded. The washed cells were suspended in buffer solution A (20 mM MES, pH 6.5, 100 mM sodium chloride, 1 mM DTT, 5 mM imidazole). Subsequently, the cell suspension was subjected to ultrasonic treatment to thereby homogenize the cells. The cell homogenate was clarified by centrifugation at 30,000 G for 60 minutes and then filtered with a […]. The filtrate was allowed to pass through HisTrapFF 5 mL column (GE Healthcare). The resin was washed with buffer A, and then gradient elution was performed with buffer B (20 mM MES, pH 6.5, 100 mM sodium chloride, 1 mM DTT, 500 mM imidazole). Thrombin was added to a fraction containing the SPR protein, and the mixture was dialyzed in buffer A overnight, to thereby cleave the tag. After removal of the thrombin by with Benzamidine Sepharose 4 FF (GE Healthcare), the resultant product was allowed to pass through the HisTrapFF 5 mL column, to thereby remove the tag, followed by concentration with Amicon Ultra 10,000 NMWL (Merck Millipore). The concentrate was purified by gel filtration using HiLoad 16/60 Superdex 75 pg (GE Healthcare) equilibrated with buffer C (20 mM MES, pH 6.5, 100 mM sodium chloride, 1 mM DTT). The fraction containing SPR protein was concentrated and then cryopreserved at −80° C.
Human SPR inhibitory activity was measured by using a 384-well low adsorption clear plate (Greiner) with buffer D containing 100 mM Tris-HCl (pH 7.5) (Thermo Fisher Scientific) and 0.01% bovine serum albumin (Sigma). A compound was diluted with DMSO to achieve seven different final concentrations; i.e., 0.14 nM, 0.41 nM, 1.23 nM, 3.7 nM, 11.1 nM, 33 nM, and 100 nM. A 1.5 μL aliquot of the compound solution prepared with DMSO was diluted with 250 μL of buffer D, and the thus-diluted solution was dispensed into the 384-well plate at 20 μL/well. Thereafter, human SPR was diluted with buffer D to 150 ng/mL and then dispensed into the 384-well plate at 20 μL/well. Subsequently, 40 μL of ultrapure water containing 120 μM sepiapterin (produced by the method described in L-Sepiapterin, Heterocycles, 2008, 76, 1329-1335 and WO 2013/168693) and 160 μM NADPH (Nacalai) was added to each well, and then reaction was initiated. The reaction mixture was incubated at room temperature for 240 minutes. Thereafter, in order to determine the amount of sepiapterin, the absorbance at 420 nm was measured by applying the 384-well plate to EnSpire multimode plate reader (Perkin Elmer). The percent inhibition (%) of human SPR by the test compound was calculated by the following formula.

Chain of human SPR (P35270 whole entry): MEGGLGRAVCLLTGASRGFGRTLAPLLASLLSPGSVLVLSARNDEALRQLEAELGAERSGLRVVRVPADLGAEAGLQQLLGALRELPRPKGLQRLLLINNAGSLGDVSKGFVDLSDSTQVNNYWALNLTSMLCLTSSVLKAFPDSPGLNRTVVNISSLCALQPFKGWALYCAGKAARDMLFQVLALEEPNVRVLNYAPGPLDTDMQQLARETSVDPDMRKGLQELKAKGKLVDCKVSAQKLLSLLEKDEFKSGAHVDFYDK

SMILES | IC50 | IC50 (hydrochloride)
CC(C)Cn1c(=O)c(C(=O)NC2CC2)c(O)n2ncc(/C=C/C(=O)N3CCOCC3CC(F)(F)F)c12 (single isomer, unassigned; isomer b) [compound 551, (E)-N-Cyclopropyl-7-hydroxy-4-isobutyl-5-oxo-3-(3-oxo-3-(3-(2,2,2-trifluoroethyl)morpholino)prop-1-en-1-yl)-4,5-dihydropyrazolo[1,5-a]pyrimidine-6-carboxamide (Isomer B)] | 840 pM | –
CC(C)(C)Cn1c(=O)c(C(=O)NC2CC2)c(O)n2nc(N)cc12 [Synthesis Example 4, 2-Amino-N-cyclopropyl-7-hydroxy-4-neopentyl-5-oxo-4,5-dihydropyrazolo[1,5-a]pyrimidine-6-carboxamide hydrochloride] | – | 900 pM
CC(C)Cn1c(=O)c(C(=O)NC2CC2)c(O)n2ncc(C(=O)NCc3ccccn3)c12 [Synthesis Example 215, N6-Cyclopropyl-7-hydroxy-4-isobutyl-5-oxo-N3-(pyridin-2-ylmethyl)-4,5-dihydropyrazolo[1,5-a]pyrimidine-3,6-dicarboxamide] | 1040 pM | –
CC(C)Cn1c(=O)c(C(=O)NC2CC2)c(O)n2ncc(C(=O)NCc3cccnc3)c12 [Synthesis Example 216, N6-Cyclopropyl-7-hydroxy-4-isobutyl-5-oxo-N3-(pyridin-3-ylmethyl)-4,5-dihydropyrazolo[1,5-a]pyrimidine-3,6-dicarboxamide] | 780 pM | –
CC(C)Cn1c(=O)c(C(=O)NC2CC2)c(O)n2ncc(C(=O)NCc3ccncc3)c12 [Synthesis Example 217, N6-Cyclopropyl-7-hydroxy-4-isobutyl-5-oxo-N3-(pyridin-4-ylmethyl)-4,5-dihydropyrazolo[1,5-a]pyrimidine-3,6-dicarboxamide] | 690 pM | –
CC(C)Cn1c(=O)c(C(=O)NC2CC2)c(O)n2ncc(C(=O)N[C@@H](C)c3ccccn3)c12 [Synthesis Example 218, (S)-N6-Cyclopropyl-7-hydroxy-4-isobutyl-5-oxo-N3-(1-(pyridin-2-yl)ethyl)-4,5-dihydropyrazolo[1,5-a]pyrimidine-3,6-dicarboxamide] | 890 pM | –
CC(C)Cn1c(=O)c(C(=O)NC2CC2)c(O)n2ncc(C(=O)N[C@H](C)c3ccccn3)c12 [Synthesis Example 219, (R)-N6-Cyclopropyl-7-hydroxy-4-isobutyl-5-oxo-N3-(1-(pyridin-2-yl)ethyl)-4,5-dihydropyrazolo[1,5-a]pyrimidine-3,6-dicarboxamide] | 980 pM | –
CC(C)Cn1c(=O)c(C(=O)NC2CC2)c(O)n2ncc(C(=O)NCc3cnccn3)c12 [Synthesis Example 220, N6-Cyclopropyl-7-hydroxy-4-isobutyl-5-oxo-N3-(pyrazin-2-ylmethyl)-4,5-dihydropyrazolo[1,5-a]pyrimidine-3,6-dicarboxamide] | 790 pM | –
CC(C)Cn1c(=O)c(C(=O)NC2CC2)c(O)n2ncc(C(=O)NCC3CCOCC3)c12 [Synthesis Example 221, N6-Cyclopropyl-7-hydroxy-4-isobutyl-5-oxo-N3-((tetrahydro-2H-pyran-4-yl)methyl)-4,5-dihydropyrazolo[1,5-a]pyrimidine-3,6-dicarboxamide] | 640 pM | –
CC(C)Cn1c(=O)c(C(=O)NC2CC2)c(O)n2ncc(C(=O)NCC3CC(F)(F)C3)c12 [Synthesis Example 222, N6-Cyclopropyl-N3-((3,3-difluorocyclobutyl)methyl)-7-hydroxy-4-isobutyl-5-oxo-4,5-dihydropyrazolo[1,5-a]pyrimidine-3,6-dicarboxamide] | 790 pM | –
Cc1nn(C)c(C)c1CNC(=O)c1cnn2c(O)c(C(=O)NC3CC3)c(=O)n(CC(C)C)c12 [Synthesis Example 223, N6-Cyclopropyl-7-hydroxy-4-isobutyl-5-oxo-N3-((1,3,5-trimethyl-1H-pyrazol-4-yl)methyl)-4,5-dihydropyrazolo[1,5-a]pyrimidine-3,6-dicarboxamide] | 1120 pM | –
Cc1cnc(CNC(=O)c2cnn3c(O)c(C(=O)NC4CC4)c(=O)n(CC(C)C)c23)cn1 [Synthesis Example 224, N6-Cyclopropyl-7-hydroxy-4-isobutyl-N3-((5-methylpyrazin-2-yl)methyl)-5-oxo-4,5-dihydropyrazolo[1,5-a]pyrimidine-3,6-dicarboxamide] | 780 pM | –
CC(C)Cn1c(=O)c(C(=O)NC2CC2)c(O)n2ncc(C(=O)Nc3ccccn3)c12 [Synthesis Example 225, N6-Cyclopropyl-7-hydroxy-4-isobutyl-5-oxo-N3-(pyridin-2-yl)-4,5-dihydropyrazolo[1,5-a]pyrimidine-3,6-dicarboxamide] | 1840 pM | –
CC(C)Cn1c(=O)c(C(=O)NC2CC2)c(O)n2ncc(C(=O)NCc3ccc(C(F)(F)F)nc3)c12 [Synthesis Example 226, N6-Cyclopropyl-7-hydroxy-4-isobutyl-5-oxo-N3-((6-(trifluoromethyl)pyridin-3-yl)methyl)-4,5-dihydropyrazolo[1,5-a]pyrimidine-3,6-dicarboxamide] | 1070 pM | –
CC(C)Cn1c(=O)c(C(=O)NC2CC2)c(O)n2ncc(C(=O)N3CCOCC3)c12 [Synthesis Example 227, N-Cyclopropyl-7-hydroxy-4-isobutyl-3-(morpholine-4-carbonyl)-5-oxo-4,5-dihydropyrazolo[1,5-a]pyrimidine-6-carboxamide] | 650 pM | –
Cc1ccc(CNC(=O)c2cnn3c(O)c(C(=O)NC4CC4)c(=O)n(CC(C)C)c23)nc1 [Synthesis Example 228, N6-Cyclopropyl-7-hydroxy-4-isobutyl-N3-((5-methylpyridin-2-yl)methyl)-5-oxo-4,5-dihydropyrazolo[1,5-a]pyrimidine-3,6-dicarboxamide] | 1020 pM | –
Cc1cc(CNC(=O)c2cnn3c(O)c(C(=O)NC4CC4)c(=O)n(CC(C)C)c23)n(C)n1 [Synthesis Example 229, N6-Cyclopropyl-N3-((1,3-dimethyl-1H-pyrazol-5-yl)methyl)-7-hydroxy-4-isobutyl-5-oxo-4,5-dihydropyrazolo[1,5-a]pyrimidine-3,6-dicarboxamide] | 850 pM | –
CC(C)Cn1c(=O)c(C(=O)NC2CC2)c(O)n2ncc(C(=O)N(C)Cc3cccnc3)c12 [Synthesis Example 230, N6-Cyclopropyl-7-hydroxy-4-isobutyl-N3-methyl-5-oxo-N3-(pyridin-3-ylmethyl) 4,5-dihydropyrazolo[1,5-a]pyrimidine-3,6-dicarboxamide] | 930 pM | –
CC(C)Cn1c(=O)c(C(=O)NC2CC2)c(O)n2ncc(C(=O)NCc3ncccn3)c12 [Synthesis Example 231, N6-Cyclopropyl-7-hydroxy-4-isobutyl-5-oxo-N3-(pyrimidin-2-ylmethyl)-4,5-dihydropyrazolo[1,5-a]pyrimidine-3,6-dicarboxamide] | 650 pM | –
CC(C)Cn1c(=O)c(C(=O)NC2CC2)c(O)n2ncc(C(=O)NCc3ccc(C#N)cc3)c12 [Synthesis Example 232, N3-(4-Cyanobenzyl)-N6-cyclopropyl-7-hydroxy-4-isobutyl-5-oxo-4,5-dihydropyrazolo[1,5-a]pyrimidine-3,6-dicarboxamide] | 1250 pM | –
CC(C)Cn1c(=O)c(C(=O)NC2CC2)c(O)n2ncc(C(=O)NCc3ccccc3F)c12 [Synthesis Example 233, N6-Cyclopropyl-N3-(2-fluorobenzyl)-7-hydroxy-4-isobutyl-5-oxo-4,5-dihydropyrazolo[1,5-a]pyrimidine-3,6-dicarboxamide] | 1030 pM | –
